Data reported in patent US20250101001A1 (priority 2021, published 2025).

Tests used:
5-HT2A [1] = target: T1, 5-HT2A (Homo sapiens, UniProt P28223); experiment: Serotonin 5-HT2A in vitro cellular IPOne agonism assay; type: cell-based; parameters: host or cells: CHO-K1; conditions: CHO-K1 cells, IPOne HTRF, agonist mode
Method: Serotonin 5-HT2A In Vitro Cellular IPOne Agonism Assay. The 5-HT2A IPOne HTRF assay was performed at Epics Therapeutics S.A. (Belgium, FAST-0505I) using conventional methods. Briefly, CHO-K1 cells expressing human recombinant 5-HT2A receptor grown to mid-log phase in culture media without antibiotics were detached with PBS-EDTA, centrifuged, and resuspended in medium without antibiotics buffer. 20,000 cells are distributed in a 96 well plate and incubated overnight at 37° C. with 5% Co2.
For agonist testing, the medium was removed and […] of assay buffer plus 20 μl of test compound or reference agonist were added in each well. The plate was incubated for 60 min. at 37° C. with 5% CO2.
(§1) After addition of the lysis buffer containing IP1-d2 and anti-IP1 cryptate detection reagents, plates were incubated 1-hour at room temperature, and fluorescence ratios were measured according to the manufacturer specification, with the HTRF kit.

5-HT2A [2] = target: T1, 5-HT2A; experiment: Serotonin 5-HT2A in vitro cellular IPOne antagonism assay; type: cell-based; parameters: host or cells: CHO-K1; conditions: CHO-K1 cells, IPOne HTRF, reference agonist a-Me-5HT
Method: Serotonin 5-HT2A and 5-HT2C In Vitro Cellular IPOne Antagonism Assay. The 5-HT2A and 5-HT2C IPOne HTRF assay was performed at Epics Therapeutics S.A. (Belgium, FAST-0505I) in antagonism mode using conventional methods. Briefly, CHO-K1 cells expressing human recombinant 5-HT2A or 5-HT2C receptor grown to mid-log phase in culture media without antibiotics were detached with PBS-EDTA, centrifuged, and resuspended in medium without antibiotics buffer. 20,000 cells were distributed in a 96 well plate and incubated overnight at 37° C. with 5% C02.
For antagonist testing, a reference agonist a-Me-5HT was added and fluorescence signal monitored for several minutes, followed by addition of 20 μlof assay buffer plus 20 μl of test compound or reference antagonist ketanserin, in each well. The plate was incubated for 60 min. at 37° C. with 5% CO2.
as §1

5-HT2A [3] = target: T1, 5-HT2A; experiment: Serotonin 5-HT2A in vitro radioligand binding competition assay ([3H]-DOI); parameters: purchased Epics Therapeutics S. A. (Belgium) FAST-0505B; conditions: [3H]-DOI competition, membrane extracts
Method: Serotonin 5-HT2A In Vitro Radioligand Binding Competition Assay. The 5-HT2A radioligand binding competition assay was performed at Epics Therapeutics S. A. (Belgium, FAST-0505B) using conventional methods. Briefly, competition binding was performed in duplicate in the wells of a 96 well plate (Master Block, Greiner, 786201) containing binding buffer (optimized for each receptor), membrane extracts (amount of protein/well optimized for each receptor), radiotracer [^3H]-DOI (final concentration optimized for each receptor) and test compound. Nonspecific binding was determined by co-incubation with 200-fold excess of cold competitor. The samples were incubated in a final volume of 0.1 ml at a temperature and for a duration optimized for each receptor and then filtered over filter plates. Filters were washed six times with 0.5 ml of ice-cold washing buffer (optimized for each receptor) and 50 μl of Microscint 20 (Packard) were added in each well. The plates were incubated 15 min on an orbital shaker and then counted with a TopCount™ for 1 min/well.

5HT2A sensor = type: cell-based

T1 sequence (P28223 whole entry): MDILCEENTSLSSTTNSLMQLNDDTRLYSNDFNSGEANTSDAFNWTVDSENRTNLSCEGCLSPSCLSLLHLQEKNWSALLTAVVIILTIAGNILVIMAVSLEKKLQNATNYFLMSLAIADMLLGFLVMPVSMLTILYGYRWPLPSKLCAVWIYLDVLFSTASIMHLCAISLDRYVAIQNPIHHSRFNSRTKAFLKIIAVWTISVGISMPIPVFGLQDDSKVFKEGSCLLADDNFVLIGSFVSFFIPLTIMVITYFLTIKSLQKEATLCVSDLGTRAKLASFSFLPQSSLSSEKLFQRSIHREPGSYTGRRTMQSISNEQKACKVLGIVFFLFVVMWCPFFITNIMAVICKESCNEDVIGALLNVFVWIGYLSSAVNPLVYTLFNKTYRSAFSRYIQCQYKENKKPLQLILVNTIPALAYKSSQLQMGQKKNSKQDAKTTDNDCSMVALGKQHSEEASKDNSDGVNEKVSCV

| Compound | EC50 (5-HT2A [1]) [µM] | IC50 (5-HT2A [2]) [µM] | IC50 (5-HT2A [3]) [µM] | activation of the 5HT2A sensor assay in agonist mode (5HT2A sensor) |
| --- | --- | --- | --- | --- |
| CN1CC(n2ccc3c(F)cccc32)C1 [Compound 32, 4-fluoro-1-(1-methylazetidin-3-yl)-1H-indole] | > 10 | 0.101 to 1 | 0.101 to 1 | – |
| Cc1cn(C2CCNC2)c2ccc(F)cc12 (stereo not shown) [Compound 14, 5-fluoro-3-methyl-1-(pyrrolidin-3-yl)-1H-indole] | 0.101 to 1 | 0.101 to 1 | 0.101 to 1 | – |
| Cc1cn(C2CN(C)C2)c2ccc(F)cc12 [Compound 5, 5-fluoro-3-methyl-1-(1-methylazetidin-3-yl)-1H-indole] | > 10 | 1 to 10 | 0.101 to 1 | – |
| CN1CC(n2ccc3cccc(F)c32)C1 [Compound 34, 7-fluoro-1-(1-methylazetidin-3-yl)-1H-indole] | > 10 | 1 to 10 | 0.101 to 1 | – |
| Fc1ccc2c(ccn2C2CCN(C3COC3)C2)c1F (stereo not shown) [Compound 21, 4,5-difluoro-1-(1-(oxetan-3-yl)pyrrolidin-3-yl)-1H-indole] | > 10 | – | > 10 | – |
| Fc1ccc2ccn(C3CNC3)c2c1 [Compound 28, 1-(azetidin-3-yl)-6-fluoro-1H-indole] | > 10 | 0.101 to 1 | 0.101 to 1 | – |
| Fc1ccc2c(ccn2C2CNC2)c1F [Compound 2, 1-(azetidin-3-yl)-4,5-difluoro-1H-indole] | > 10 | 0.101 to 1 | 0.101 to 1 | – |
| CN1CC(n2ccc3cc(F)ccc32)C1 [Compound 30, 5-fluoro-1-(1-methylazetidin-3-yl)-1H-indole] | > 10 | 0.101 to 1 | 0.101 to 1 | – |
| CC(C)c1cn(C2CCN(C)C2)c2ccc(F)cc12 (stereo not shown) [Compound 11, 5-fluoro-3-isopropyl-1-(1-methylpyrrolidin-3-yl)-1H-indole] | > 10 | 0.101 to 1 | 1 to 10 | – |
| Cc1ccc2c(ccn2C2CN(C)C2)c1 [Compound 35, 5-methyl-1-(1-methylazetidin-3-yl)-1H-indole] | > 10 | 1 to 10 | 1 to 10 | – |
| COc1cc(CC(C)N)c(OC)cc1I.Cl (racemic) [DOI] | – | – | – | activate the 5HT2A sensor assay in agonist mode |
| CC(C)N1CCC(n2ccc3c(F)c(F)ccc32)C1 (stereo not shown) [Compound 19, 4,5-difluoro-1-(1-isopropylpyrrolidin-3-yl)-1H-indole] | > 10 | – | 1 to 10 | – |
| COCCN1CCC(n2ccc3c(F)c(F)ccc32)C1 (stereo not shown) [Compound 23, 4,5-Difluoro-1-(1-(2-methoxyethyl)pyrrolidin-3-yl)-1H-indole] | > 10 | 1 to 10 | 1 to 10 | – |
| CN1CC(n2ccc3ccc(F)cc32)C1 [Compound 33, 6-fluoro-1-(1-methylazetidin-3-yl)-1H-indole] | > 10 | 0.101 to 1 | 0.101 to 1 | – |
| CN1CCC(n2cc(-c3ccccc3)c3cc(F)ccc32)C1 (stereo not shown) [Compound 12, 5-fluoro-1-(1-methylpyrrolidin-3-yl)-3-phenyl-1H-indole] | > 10 | 0.01 to 0.1 | 0.01 to 0.1 | – |
| L-MDMA | – | – | – | do not activate the 5HT2A sensor assay in agonist mode |
| Fc1ccc2c(ccn2C2CCNC2)c1F (stereo not shown) [Compound 15, 4,5-Difluoro-1-(pyrrolidin-3-yl)-1H-indole] | 0.101 to 1 | 0.101 to 1 | 0.101 to 1 | – |
| CN1CCC(n2ccc3c(F)c(F)ccc32)C1 (stereo not shown) [Compound 8, 4,5-difluoro-1-(1-methylpyrrolidin-3-yl)-1H-indole] | 0.101 to 1 | 0.101 to 1 | 0.101 to 1 | – |
| Cc1cn(C2CCN(C)C2)c2ccc(OC3COC3)cc12 (stereo not shown) [Compound 13, 3-Methyl-1-(1-methylpyrrolidin-3-yl)-5-(oxetan-3-yloxy)-1H-indole] | > 10 | – | > 10 | – |
| COCCN1CCC(n2cc(C)c3cc(F)ccc32)C1 (stereo not shown) [Compound 22, 5-Fluoro-1-(1-(2-methoxyethyl)pyrrolidin-3-yl)-3-methyl-1H-indole] | > 10 | – | 1 to 10 | – |

| Compound | EC50 (5-HT2A [1]) [µM] | IC50 (5-HT2A [2]) [µM] | IC50 (5-HT2A [3]) [µM] | activation of the 5HT2A sensor assay in agonist mode (5HT2A sensor) |
| --- | --- | --- | --- | --- |
| CN1CC(n2ccc3cc(Cl)ccc32)C1 [Compound 36, 5-chloro-1-(1-methylazetidin-3-yl)-1H-indole] | > 10 | > 10 | > 10 | – |
| N#Cc1ccc2c(ccn2C2CNC2)c1 [Compound 25, 1-(azetidin-3-yl)-1H-indole-5-carbonitrile] | > 10 | > 10 | > 10 | – |
| Fc1cccc2ccn(C3CNC3)c12 [Compound 26, 1-(azetidin-3-yl)-7-fluoro-1H-indole] | 1 to 10 | 1 to 10 | 1 to 10 | – |
| Cc1cn(C2CCN(C)C2)c2ccc(F)cc12 (stereo not shown) [Compound 7, 5-Fluoro-3-methyl-1-(1-methylpyrrolidin-3-yl)-1H-indole] | > 10 | 1 to 10 | 1 to 10 | – |
| CN1CC(n2ccc3cc(C#N)ccc32)C1 [Compound 37, 1-(1-methylazetidin-3-yl)-1H-indole-5-carbonitrile] | > 10 | > 10 | > 10 | – |
| CCN1CCC(n2cc(C)c3cc(F)ccc32)C1 (stereo not shown) [Compound 16, 1-(1-Ethylpyrrolidin-3-yl)-5-fluoro-3-methyl-1H-indole] | > 10 | – | 1 to 10 | – |
| Cc1cn(C2CCNCC2)c2ccc(F)cc12 [Compound 3, 5-fluoro-3-methyl-1-(piperidin-4-yl)-1H-indole] | > 10 | 0.101 to 1 | 0.101 to 1 | – |
| Cc1cn(C2CNC2)c2ccc(F)cc12 [Compound 1, 1-(azetidin-3-yl)-5-fluoro-3-methyl-1H-indole] | > 10 | 1 to 10 | 0.101 to 1 | – |
| CN1CCC(n2ccc3c(F)c(F)ccc32)CC1 [Compound 10, 4,5-difluoro-1-(1-methylpiperidin-4-yl)-1H-indole] | > 10 | 0.101 to 1 | 0.101 to 1 | – |
| COc1ccc2c(ccn2C2CNC2)c1 [Compound 29, 1-(azetidin-3-yl)-5-methoxy-1H-indole] | > 10 | > 10 | > 10 | – |
| COc1ccc2c(ccn2C2CN(C)C2)c1 [Compound 31, 5-methoxy-1-(1-methylazetidin-3-yl)-1H-indole] | > 10 | > 10 | > 10 | – |
| Fc1ccc2c(ccn2C2CCNCC2)c1F [Compound 4, 4,5-difluoro-1-(piperidin-4-yl)-1H-indole] | > 10 | 0.101 to 1 | 0.101 to 1 | – |
| Fc1ccc2c(ccn2C2CNC2)c1 [Compound 27, 1-(azetidin-3-yl)-5-fluoro-1H-indole] | > 10 | 0.101 to 1 | 0.101 to 1 | – |
| Clc1ccc2c(ccn2C2CNC2)c1 [Compound 24, 1-(azetidin-3-yl)-5-chloro-1H-indole] | > 10 | 0.101 to 1 | 1 to 10 | – |
| Cc1cn(C2CCN(C3COC3)C2)c2ccc(F)cc12 (stereo not shown) [Compound 20, 5-fluoro-3-methyl-1-(1-(oxetan-3-yl)pyrrolidin-3-yl)-1H-indole] | > 10 | – | > 10 | – |
| Cc1cn(C2CCN(C(C)C)C2)c2ccc(F)cc12 (stereo not shown) [Compound 18, 5-fluoro-1-(1-isopropylpyrrolidin-3-yl)-3-methyl-1H-indole] | > 10 | – | 1 to 10 | – |
| CN1CC(n2ccc3c(F)c(F)ccc32)C1 [Compound 6, 4,5-Difluoro-1-(1-methylazetidin-3-yl)-1H-indole] | > 10 | 0.101 to 1 | 0.101 to 1 | – |
| Cc1cn(C2CCN(C)CC2)c2ccc(F)cc12 [Compound 9, 5-fluoro-3-methyl-1-(1-methylpiperidin-4-yl)-1H-indole] | > 10 | 0.101 to 1 | 0.101 to 1 | – |
| CCN1CCC(n2ccc3c(F)c(F)ccc32)C1 (stereo not shown) [Compound 17, 1-(1-ethylpyrrolidin-3-yl)-4,5-difluoro-1H-indole] | > 10 | 1 to 10 | 1 to 10 | – |
